Where two headings read alike, the source gives them in different places.
Biological target: human α7 nicotinic acetylcholine receptor (α7 nAChR) (Homo sapiens, UniProt P36544)
Assay: Automated patch-clamp electrophysiology functional assay (Assay A)
Assay type: cell-based
Conditions: HEK cell line stably expressing human RIC-3 and human α7, IonFlux HT whole-cell population patch, 40 μM acetylcholine
Protocol: The α7 nAChR positive allosteric modulator (PAM) activity of the present compounds may be tested using assays known in the art. The α7 nAChR PAMs described herein have activities in an automated patch-clamp electrophysiology functional assay as described in the examples. The assay was performed using the IonFlux HT in a whole-cell, population patch configuration. See Golden et al. Assay Drug Dev. Technol. (2011) 9:608-619. The compounds were assessed for their ability to modulate the function of the human […] nAChR stably expressed in a HEK cell line both in the presence, and in the absence of the natural 07 agonist acetylcholine. By performing a series of such measurements at different concentrations, the effective concentration of the α7 nAChR PAMs (EC50) was determined. See Spencer et al. Assay Drug Dev. Technol. (2012) 10:313-324.
Automated patch-clamp electrophysiology was performed using the IonFlux HT (Fluxion Biosciences Inc., San Francisco, Calif.) in the whole-cell, population patch configuration. Test compounds were assessed for their ability to modulate the function of the α7 nicotinic acetylcholine receptor both in the presence, and in the absence of the natural α7 agonist acetylcholine. A HEK cell line stably expressing both human RIC-3 and human α7 (PrecisION hnAChR α7/RIC-3, Eurofins Pharma, St. Charles, Mo.) was cultured in 175 cm^2 triple-layer tissue culture flasks to no more than 90% confluency in DMEM/F-12 growth media supplemented with 10% heat-inactivated fetal bovine serum, 1% non-essential amino acids, 0.625 μg/mL Puromycin, and 400 μg/mL Geneticin. Immediately prior to assay, cells were detached by first aspirating growth media, rinsing with Dulbecco's phosphate buffered saline, and then adding 10 mL of Accutase (Innovative Cell Technologies, San Diego, Calif.) to the flask and then incubating at 37° C. for 5 minutes. Detached cells were then recovered by the addition of 40 mL of CHO-serum-free media supplemented with 25 mM HEPES, and rocked gently in a 50 mL conical tube for 20 minutes prior to patch-clamp assay. After recovery, cells were pelleted by centrifugation at 1,000 RPM for 1 minute in a compact bench top centrifuge; recovery media was aspirated and cells were resuspended in external recording solution (150 mM NaCl, 5 mM KCl, 2 mM CaCl2, 1 mM MgCl2, 10 mM HEPES, 12 mM dextrose) to a density of 5.0×10^6 cells/mL. The cell suspension was added to the cell inlet wells on an IonFlux HT population patch plate which had previously been rinsed and primed with deionized H2O. Test compounds were serially diluted in DMSO and then resuspended to the final test concentration in external recording solution, with, or without 40 μM acetylcholine added to the external recording solution; test compounds were then transferred to the IonFlux HT population patch plate. Internal recording solution (110 mM TrisPO4, 28 mM TrisBase, 0.1 mM CaCl2, 2 mM MgCl2, 11 mM EGTA, 4 mM MgATP) was added to the internal recording solution inlet wells on the IonFlux HT patch plate previously loaded with cells and test compounds, and the plate loaded into the IonFlux HT instrument. A protocol was executed on the IonFlux HT to trap the cells, break into the cells, and establish the whole-cell recording configuration; cells were voltage-clamped at a holding potential of −60 mV for the duration of the experiment, all experiments were conducted at room temperature, and the IonFlux HT injection pressure was 8 psi for solution applications. Upon establishing the whole-cell configuration, external recording solution was perfused into the recording chambers for 120 seconds and then 40 μM acetylcholine was applied for 1 second and immediately washed off with external recording solution for 60 seconds. The 40 μM acetylcholine-evoked α7 current served as the current response to which subsequent test compound effects, in the presence, or in the absence of 40 μM acetylcholine would be quantified relative to. […]

Sequence of human α7 nicotinic acetylcholine receptor (α7 nAChR) (P36544 23-502): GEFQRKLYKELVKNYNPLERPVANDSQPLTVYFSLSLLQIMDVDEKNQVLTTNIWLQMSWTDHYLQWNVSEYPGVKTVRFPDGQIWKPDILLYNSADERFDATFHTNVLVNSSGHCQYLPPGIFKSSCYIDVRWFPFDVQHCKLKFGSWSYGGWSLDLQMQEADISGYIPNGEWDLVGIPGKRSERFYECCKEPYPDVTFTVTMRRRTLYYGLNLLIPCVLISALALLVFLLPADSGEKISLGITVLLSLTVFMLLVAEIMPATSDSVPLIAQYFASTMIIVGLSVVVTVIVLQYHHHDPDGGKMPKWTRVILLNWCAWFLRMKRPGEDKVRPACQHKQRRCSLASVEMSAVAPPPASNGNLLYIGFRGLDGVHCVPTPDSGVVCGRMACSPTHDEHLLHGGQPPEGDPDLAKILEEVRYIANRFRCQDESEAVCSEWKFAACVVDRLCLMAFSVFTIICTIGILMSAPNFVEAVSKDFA

Row | Compound | EC50 (read-out: α7 nAChR EC50) | EC50 (read-out: α7 nAChR Potency)
1 | CC1(C)[C@@H](c2ccc(S(N)(=O)=O)cc2)[C@@H]1c1nc2c(o1)CCCC2 [Example C3, 4-[(1S,3S)-2,2-Dimethyl-3-(4,5,6,7-tetrahydro-1,3-benzoxazol-2-yl)cyclopropyl]benzenesulfonamide] | 120 nM | 100 to 500 nM
2 | CC1(C)[C@H](c2ccc(S(N)(=O)=O)cc2)[C@H]1c1ncc2ccccc2n1 [Example D1, 4-[(1R,3R)-2,2-Dimethyl-3-quinazolin-2-yl-cyclopropyl]benzenesulfonamide] | 7200 nM | 5000 to 50000 nM
3 | CC1(C)[C@H](c2ccc(S(N)(=O)=O)cc2)[C@H]1c1nc2ccncc2o1 [Example D2, 4-[(1R,3R)-2,2-Dimethyl-3-oxazolo[5,4-c]pyridin-2-yl-cyclopropyl]benzenesulfonamide] | 3400 nM | 500 to 5000 nM
4 | Cn1c([C@@H]2[C@@H](c3ccc(S(N)(=O)=O)cc3)C2(C)C)nc2cc(F)cc(F)c21 [Example D4, 4-[(1R,3R)-3-(5,7-Difluoro-1-methyl-benzimidazol-2-yl)-2,2-dimethyl-cyclopropyl]benzenesulfonamide] | – | 5000 to 50000 nM
5 | CC1(C)OC([C@@H]2[C@@H](c3ccc(S(N)(=O)=O)cc3)C2(F)F)=Nc2ccccc21 [Example D5, 4-[(1S,3S)-3-(4,4-Dimethyl-4H-3,1-benzoxazin-2-yl)-2,2-difluorocyclopropyl]benzenesulfonamide] | 1100 nM | 500 to 5000 nM

Continued, values first:

Row | EC50 (read-out: α7 nAChR EC50) | EC50 (read-out: α7 nAChR Potency) | Compound
6 | 660 nM | 500 to 5000 nM | COc1ccc2oc([C@@H]3[C@@H](c4ccc(S(N)(=O)=O)cc4)C3(C)C)nc2c1 [Example B10, 4-[(1R,3R)-3-(5-Methoxy-1,3-benzoxazol-2-yl)-2,2-dimethyl-cyclopropyl]benzenesulfonamide]
7 | 430 nM | 100 to 500 nM | NS(=O)(=O)c1ccc([C@@H]2[C@@H](c3nc4ccccc4o3)C2(F)F)cc1 [Example B11, 4-[(1S,3S)-3-(1,3-Benzoxazol-2-yl)-2,2-difluoro-cyclopropyl]benzenesulfonamide]
8 | – | 100 to 500 nM | NS(=O)(=O)c1ccc([C@@H]2[C@@H](c3nc4ccccc4s3)C2(F)F)cc1 [Example B12, 4-[(1S,3R)-3-(1,3-Benzothiazol-2-yl)-2,2-difluoro-cyclopropyl]benzenesulfonamide]
9 | 1400 nM | 500 to 5000 nM | CC1(C)[C@@H](c2ccc(S(N)(=O)=O)cc2)[C@@H]1c1ncc2ccccc2n1 [Example C1, 4-[(1S,3S)-2,2-Dimethyl-3-quinazolin-2-yl-cyclopropyl]benzenesulfonamide]
10 | – | 500 to 5000 nM | CC1(C)[C@@H](c2ccc(S(N)(=O)=O)cc2)[C@@H]1c1ncc2c(F)cccc2n1 [Example C2, 4-[(1S,3S)-3-(5-Fluoroquinazolin-2-yl)-2,2-dimethyl-cyclopropyl]benzenesulfonamide]
11 | – | 500 to 5000 nM | NS(=O)(=O)c1ccc([C@H]2[C@H](c3nc4c(o3)CCCC4)C2(F)F)cc1 [Example C4, 4-[(1R,3R)-2,2-Difluoro-3-(4,5,6,7-tetrahydro-1,3-benzoxazol-2-yl)cyclopropyl]benzenesulfonamide]
12 | – | 500 to 5000 nM | CC1(C)[C@H](c2ccc(S(N)(=O)=O)cc2)[C@H]1c1nc2c(o1)CCCC2 [Example D3, 4-[(1R,3R)-2,2-Dimethyl-3-(4,5,6,7-tetrahydro-1,3-benzoxazol-2-yl)cyclopropyl]benzenesulfonamide]

— patent US10870630B2, “Substituted bicyclic heteroaryl allosteric modulators of nicotinic acetylcholine receptors” (Merck Sharp & Dohme Corp., priority 2016, dated 2020)
